# Source: the supplement of paper PMC10307832
# Key:
# Experiment in all cases: relative viability (nuclei count vs DMSO), 5 days (fraction); higher = more cells survive
# HCC-78 = test system: HCC-78
# In short: (§1)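 Values are medians from duplicate plates. Each reflects relative viability, defined as the nuclei count of treated wells over that of vehicle wells. Lung cancer cell lines in 1536-well plates were pin-tool dosed one day after seeding with one drug alone or with a fixed anchor-drug dose plus five library-drug doses (not always all listed) in √10 steps, then fixed, stained and imaged at 4× after 5 days.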
# NCI-H1650 = test system: NCI-H1650
# In short: as §1
# NCI-H727 = test system: NCI-H727
# In short: as §1
# NCI-H1563 = test system: NCI-H1563
# In short: as §1
# NCI-H1734 = test system: NCI-H1734
# In short: as §1
# LU99A = test system: LU99A
# In short: as §1
# RERF-LC-KJ = test system: RERF-LC-KJ
# In short: as §1
# NCI-H2126 = test system: NCI-H2126
# In short: as §1
# LCLC-97TM1 = test system: LCLC-97TM1
# In short: as §1
# EMC-BAC-2 = test system: EMC-BAC-2
# In short: as §1
# NCI-H2087 = test system: NCI-H2087
# In short: as §1
# NCI-H1944 = test system: NCI-H1944
# In short: as §1
# COR-L 105 = test system: COR-L 105
# In short: as §1
# EKVX = test system: EKVX
# In short: as §1
# EPLC-272H = test system: EPLC-272H
# In short: as §1
# LK-2 = test system: LK-2
# In short: as §1
# SW 1573 = test system: SW 1573
# In short: as §1
# LOU-NH91 = test system: LOU-NH91
# In short: as §1
# NCI-H358 = test system: NCI-H358
# In short: as §1
# BEN = test system: BEN
# In short: as §1
# NCI-H1792 = test system: NCI-H1792
# In short: as §1
# HCC-827 = test system: HCC-827
# In short: as §1
# SK-MES-1 = test system: SK-MES-1
# In short: as §1
smiles,measurement,setting,value
CCCCCCCCCCCC1=C(O)C(=O)C=C(O)C1=O [Embelin] + CS(=O)(=O)CCNCc1ccc(-c2ccc3ncnc(Nc4ccc(OCc5cccc(F)c5)c(Cl)c4)c3c2)o1 [Lapatinib] (partner 2 µM),relative viability,HCC-78; first compound 0.08 µM,0.767
same,relative viability,HCC-78; first compound 0.8 µM,0.703
same,relative viability,HCC-78; first compound 2.53 µM,0.796
same,relative viability,HCC-78; first compound 8 µM,0.616
same,relative viability,NCI-H1650; first compound 0.08 µM,0.762
same,relative viability,NCI-H1650; first compound 0.8 µM,0.931
same,relative viability,NCI-H1650; first compound 2.53 µM,0.74
same,relative viability,NCI-H1650; first compound 8 µM,0.712
same,relative viability,NCI-H727; first compound 0.08 µM,0.737
same,relative viability,NCI-H727; first compound 0.8 µM,0.753
same,relative viability,NCI-H727; first compound 2.53 µM,1.13
same,relative viability,NCI-H727; first compound 8 µM,0.738
same,relative viability,NCI-H1563; first compound 0.08 µM,0.869
same,relative viability,NCI-H1563; first compound 0.8 µM,1.11
same,relative viability,NCI-H1563; first compound 2.53 µM,0.838
same,relative viability,NCI-H1563; first compound 8 µM,0.839
same,relative viability,NCI-H1734; first compound 0.08 µM,0.963
same,relative viability,NCI-H1734; first compound 0.8 µM,1.28
same,relative viability,NCI-H1734; first compound 2.53 µM,1.26
same,relative viability,NCI-H1734; first compound 8 µM,1.12
same,relative viability,LU99A; first compound 0.08 µM,0.999
same,relative viability,LU99A; first compound 0.8 µM,0.991
same,relative viability,LU99A; first compound 2.53 µM,1.12
same,relative viability,LU99A; first compound 8 µM,0.855
same,relative viability,RERF-LC-KJ; first compound 0.08 µM,0.81
same,relative viability,RERF-LC-KJ; first compound 0.8 µM,0.935
same,relative viability,RERF-LC-KJ; first compound 2.53 µM,0.991
same,relative viability,RERF-LC-KJ; first compound 8 µM,0.84
same,relative viability,NCI-H2126; first compound 0.08 µM,0.742
same,relative viability,NCI-H2126; first compound 0.8 µM,0.791
same,relative viability,NCI-H2126; first compound 2.53 µM,0.83
same,relative viability,NCI-H2126; first compound 8 µM,0.643
same,relative viability,LCLC-97TM1; first compound 0.8 µM,1.48
same,relative viability,LCLC-97TM1; first compound 2.53 µM,0.823
same,relative viability,LCLC-97TM1; first compound 8 µM,0.86
same,relative viability,EMC-BAC-2; first compound 0.08 µM,0.932
same,relative viability,EMC-BAC-2; first compound 0.8 µM,0.959
same,relative viability,EMC-BAC-2; first compound 2.53 µM,0.926
same,relative viability,EMC-BAC-2; first compound 8 µM,0.817
same,relative viability,NCI-H2087; first compound 0.08 µM,1.07
same,relative viability,NCI-H2087; first compound 0.8 µM,1.02
same,relative viability,NCI-H2087; first compound 2.53 µM,1.2
same,relative viability,NCI-H2087; first compound 8 µM,1.23
same,relative viability,NCI-H1944; first compound 0.08 µM,0.774
same,relative viability,NCI-H1944; first compound 0.8 µM,0.908
same,relative viability,NCI-H1944; first compound 2.53 µM,0.841
same,relative viability,NCI-H1944; first compound 8 µM,0.65
same,relative viability,COR-L 105; first compound 0.08 µM,0.356
same,relative viability,COR-L 105; first compound 0.8 µM,0.436
same,relative viability,COR-L 105; first compound 2.53 µM,0.384
same,relative viability,COR-L 105; first compound 8 µM,0.391
same,relative viability,EKVX; first compound 0.08 µM,0.197
same,relative viability,EKVX; first compound 0.8 µM,0.528
same,relative viability,EKVX; first compound 2.53 µM,0.215
same,relative viability,EKVX; first compound 8 µM,0.211
same,relative viability,EPLC-272H; first compound 0.08 µM,0.899
same,relative viability,EPLC-272H; first compound 0.8 µM,1.38
same,relative viability,EPLC-272H; first compound 2.53 µM,1.01
same,relative viability,EPLC-272H; first compound 8 µM,0.816
same,relative viability,LK-2; first compound 0.08 µM,0.906
same,relative viability,LK-2; first compound 0.8 µM,0.991
same,relative viability,LK-2; first compound 2.53 µM,1.24
same,relative viability,LK-2; first compound 8 µM,0.825
same,relative viability,SW 1573; first compound 0.08 µM,1.04
same,relative viability,SW 1573; first compound 0.8 µM,1.03
same,relative viability,SW 1573; first compound 2.53 µM,1.33
same,relative viability,SW 1573; first compound 8 µM,1.09
same,relative viability,LOU-NH91; first compound 0.08 µM,0.823
same,relative viability,LOU-NH91; first compound 0.8 µM,0.99
same,relative viability,LOU-NH91; first compound 2.53 µM,0.866
same,relative viability,LOU-NH91; first compound 8 µM,0.63
same,relative viability,NCI-H358; first compound 0.08 µM,0.452
same,relative viability,NCI-H358; first compound 0.8 µM,0.525
same,relative viability,NCI-H358; first compound 2.53 µM,0.47
same,relative viability,NCI-H358; first compound 8 µM,0.384
same,relative viability,BEN; first compound 0.08 µM,0.697
same,relative viability,BEN; first compound 0.8 µM,0.887
same,relative viability,BEN; first compound 2.53 µM,0.805
same,relative viability,BEN; first compound 8 µM,0.73
same,relative viability,NCI-H1792; first compound 0.08 µM,0.917
same,relative viability,NCI-H1792; first compound 0.8 µM,0.877
same,relative viability,NCI-H1792; first compound 2.53 µM,1.09
same,relative viability,NCI-H1792; first compound 8 µM,1.06
same,relative viability,HCC-827; first compound 0.08 µM,0.157
same,relative viability,HCC-827; first compound 0.8 µM,0.176
same,relative viability,HCC-827; first compound 2.53 µM,0.179
same,relative viability,HCC-827; first compound 8 µM,0.197
same,relative viability,SK-MES-1; first compound 0.08 µM,0.496
same,relative viability,SK-MES-1; first compound 0.8 µM,0.496
same,relative viability,SK-MES-1; first compound 2.53 µM,0.516
same,relative viability,SK-MES-1; first compound 8 µM,0.477
